Measured values: patent US20080255169A1 (priority 2004, published 2008)
Where two headings read alike, the source gives them in different places.

Target: α2β1 integrin (Homo sapiens, UniProt P05556+P17301)
Experiment: Cell adhesion assay
Format: cell-based
Settings: for Emax: read-out: Emax in cell adhesion assay
[1] = read-out: EC50 in cell adhesion assay

Sequence of α2β1 integrin (P17301 30-1181): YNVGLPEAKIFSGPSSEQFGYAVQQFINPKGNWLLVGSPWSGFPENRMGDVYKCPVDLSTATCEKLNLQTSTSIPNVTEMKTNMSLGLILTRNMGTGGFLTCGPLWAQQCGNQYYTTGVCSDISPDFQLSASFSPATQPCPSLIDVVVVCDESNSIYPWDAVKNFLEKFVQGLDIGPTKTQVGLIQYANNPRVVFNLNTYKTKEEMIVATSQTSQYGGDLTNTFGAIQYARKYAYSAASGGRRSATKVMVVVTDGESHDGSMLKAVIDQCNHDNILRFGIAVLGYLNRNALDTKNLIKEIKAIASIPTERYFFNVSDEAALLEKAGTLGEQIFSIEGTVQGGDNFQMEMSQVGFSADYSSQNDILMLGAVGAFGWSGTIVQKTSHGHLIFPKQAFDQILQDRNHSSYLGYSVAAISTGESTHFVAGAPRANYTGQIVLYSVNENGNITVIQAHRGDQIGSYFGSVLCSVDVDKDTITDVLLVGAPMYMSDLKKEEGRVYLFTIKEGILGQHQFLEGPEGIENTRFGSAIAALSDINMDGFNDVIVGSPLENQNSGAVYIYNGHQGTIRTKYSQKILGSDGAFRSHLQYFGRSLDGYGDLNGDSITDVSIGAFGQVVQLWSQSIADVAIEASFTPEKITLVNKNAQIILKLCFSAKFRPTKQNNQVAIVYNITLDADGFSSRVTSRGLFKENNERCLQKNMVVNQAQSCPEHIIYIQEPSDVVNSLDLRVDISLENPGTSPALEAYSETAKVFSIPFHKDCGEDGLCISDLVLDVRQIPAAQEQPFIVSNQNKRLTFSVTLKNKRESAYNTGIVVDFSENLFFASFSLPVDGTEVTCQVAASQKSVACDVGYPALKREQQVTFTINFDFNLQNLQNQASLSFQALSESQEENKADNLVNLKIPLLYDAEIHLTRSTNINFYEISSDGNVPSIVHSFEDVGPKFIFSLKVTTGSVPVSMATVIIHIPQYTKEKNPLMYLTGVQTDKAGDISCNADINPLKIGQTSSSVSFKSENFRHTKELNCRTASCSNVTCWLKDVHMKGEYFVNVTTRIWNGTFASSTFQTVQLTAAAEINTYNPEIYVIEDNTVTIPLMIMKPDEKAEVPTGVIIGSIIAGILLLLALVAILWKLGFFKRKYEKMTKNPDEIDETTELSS
Sequence of α2β1 integrin (P05556 21-798 partner): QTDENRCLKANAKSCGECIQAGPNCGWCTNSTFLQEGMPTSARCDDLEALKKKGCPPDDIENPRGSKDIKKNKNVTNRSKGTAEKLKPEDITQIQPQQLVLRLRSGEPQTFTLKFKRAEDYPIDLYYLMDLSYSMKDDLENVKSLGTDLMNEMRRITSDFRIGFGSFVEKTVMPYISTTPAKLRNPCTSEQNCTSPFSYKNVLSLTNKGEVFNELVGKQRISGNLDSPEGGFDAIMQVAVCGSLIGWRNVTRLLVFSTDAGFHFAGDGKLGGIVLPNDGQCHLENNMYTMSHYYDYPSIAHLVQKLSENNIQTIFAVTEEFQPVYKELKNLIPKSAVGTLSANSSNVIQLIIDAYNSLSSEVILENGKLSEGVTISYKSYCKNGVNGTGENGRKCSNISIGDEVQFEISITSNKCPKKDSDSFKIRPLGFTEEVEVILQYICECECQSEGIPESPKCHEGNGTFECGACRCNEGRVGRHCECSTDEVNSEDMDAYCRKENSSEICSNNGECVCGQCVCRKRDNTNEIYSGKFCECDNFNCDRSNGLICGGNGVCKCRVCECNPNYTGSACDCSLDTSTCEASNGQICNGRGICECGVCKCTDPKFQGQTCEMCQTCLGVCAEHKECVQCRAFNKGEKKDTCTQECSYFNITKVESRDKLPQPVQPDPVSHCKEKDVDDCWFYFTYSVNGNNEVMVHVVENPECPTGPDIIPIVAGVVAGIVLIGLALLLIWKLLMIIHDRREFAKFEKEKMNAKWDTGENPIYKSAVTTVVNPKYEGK

| Emax at 50 µM [%] | EC50 [1] [µM] | Emax (concentration not given) [%] | EC50 (EC50 in cell adhesion assay) [µM] | Emax [%] | SMILES |
| --- | --- | --- | --- | --- | --- |
| 64 | 35 | – | – | – | Cc1cc2cc(N(C)S(=O)(=O)c3cccc(Br)c3)ccc2[nH]1 [Compound 209] |
| – | 44 | 45 | – | – | CN(C)c1ccc(NS(=O)(=O)c2cc(-c3ccc(F)cc3)c(-c3ccc(F)cc3)s2)cc1 [Compound 317] |
| – | 13 | 82 | – | – | CN(C)c1ccc(N(C)S(=O)(=O)c2ccc(Cl)cc2Cl)cc1 [Compound 223, 2,4-dichloro-N-[4-(dimethylamino)phenyl]-N-methyl benzenesulfonamide] |
| 84 | 20 | – | – | – | CN(C)c1ccc(NS(=O)(=O)c2cccc(-c3cccc(O)c3)c2)cc1 [Compound 205] |
| – | 17 | 60 | – | – | Cc1cc(C)nc(N(C)c2ccc(NS(=O)(=O)c3ccc(Cl)cc3Cl)cc2)n1 [Compound 50, 2,4-dichloro-N-{4-[(4,6-dimethylpyrimidin-2-yl)(methyl)amino]phenyl}benzenesulphonamide] |
| 67 | 20 | – | – | – | Cc1cc(F)ccc1-c1ccc(S(=O)(=O)Nc2ccc(N(C)C)cc2)s1 [Compound 307] |
| – | 20 | 79 | – | – | O=S(=O)(Nc1ccc(-n2cnc(Cl)c2Cl)cc1)c1ccc2ccccc2c1 [Compound 171] |
| – | 26 | 80 | – | – | O=S(=O)(Nc1ccc(-n2cccn2)cc1)c1cccc(-c2ccc(F)cc2)c1 [Compound 297] |
| – | 18 | 87 | – | – | Cc1nc2ccc(NS(=O)(=O)c3cccc(-c4ccc(F)cc4)c3)cc2o1 [Compound 187, 4′-fluoro-biphenyl-3-sulfonic acid (2-methyl-benzooxazol-6-yl)-amide] |
| – | 26 | 57 | – | – | CN(C)c1ccc(NS(=O)(=O)c2cccc(-c3cccc(C#N)c3)c2)cc1 [Compound 275] |
| – | 9.6 | 79 | – | – | O=S(=O)(Nc1ccc(-n2cnc(Cl)c2Cl)cc1)c1cccc(-c2ccc(F)cc2)c1 [Compound 299] |
| – | 39 | 75 | – | – | CN(C)c1ccc(NS(=O)(=O)c2cc(Br)c(F)cc2F)cc1 [Compound 192, 5-bromo-N-[4-(dimethylamino)phenyl]-2,4-difluoro benzene sulfonamide] |
| 88 | 17 | – | – | – | COc1cc(OC)nc(-c2ccc(NS(=O)(=O)c3ccc(Cl)c(Cl)c3)cc2)n1 [Compound 255] |
| – | – | 76 | – | – | O=S(=O)(Nc1ccc2ncsc2c1)c1cccc(-c2ccc(F)cc2)c1 [Compound 189, 4′-fluoro-biphenyl-3-sulfonic acid benzothiazol-6-ylamide] |
| – | 18 | 70 | – | – | COc1cc(OC)nc(-c2ccc(NS(=O)(=O)c3ccc4ccccc4c3)cc2)n1 [Compound 266] |
| – | 37 | 72 | – | – | COc1cc(OC)nc(-c2ccc(NS(=O)(=O)c3ccc(-c4cnco4)s3)cc2)n1 [Compound 286, 5-oxazol-5-yl-thiophene-2-sulfonic acid [4-(4,6-dimethoxypyrimidin-2-yl)-phenyl]-amide] |
| 85 | 21 | – | – | – | COc1cc(OC)nc(-c2ccc(NS(=O)(=O)c3ccc(Cl)cc3Cl)cc2)n1 [Compound 164, 2,4-dichloro-N-[4-(4,6-dimethoxy-pyrimidin-2-yl)-phenyl]-benzenesulfonamide] |
| 64 | 36 | – | – | – | Cc1cc(C)nc(Nc2ccc(NS(=O)(=O)c3cccc(-c4ccc(F)cc4)c3)cc2)n1 [Compound 201] |
| – | – | – | 26 | 88 | CN(C)c1ccc(NS(=O)(=O)c2cccc(-c3ccc(F)c(F)c3)c2)cc1 [Compound 263] |
| – | ~25 | 63 | – | – | COc1cccc(-c2cccc(S(=O)(=O)Nc3ccc(N(C)C)cc3)c2)c1 [Compound 204] |
| – | 19 | 86 | – | – | CN(C)c1ccc(NS(=O)(=O)c2cccc(-c3cccc(F)c3)c2)cc1 [Compound 203] |
